According to ChEMBL document CHEMBL1201862, “PubChem BioAssay data set” (2004):
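Five compound concentrations were applied to cells in 96-well plates for 48 hours; endpoints were derived by simple linear interpolation of the resulting dose-response curve. At the GI50, growth is halved.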 Active and inactive are the calls of the source. Rule as the data show it: active = GI50 up to about 1.1 µM and inactive = higher.

Key:
Experiment in all cases: growth of human tumour cells (NCI), 48 h
[1] = tested on: KM-20L2
[2] = tested on: M19-MEL
[3] = tested on: SNB-75
[4] = tested on: HCT-15
[5] = tested on: OVCAR-5
[6] = tested on: 786-0
[7] = tested on: HL-60
[8] = tested on: EKVX
[9] = tested on: NCI-H23
[10] = tested on: M14
[11] = tested on: OVCAR-8
[12] = tested on: UACC-62
[13] = tested on: RXF 393
[14] = tested on: NCI-H226
[15] = tested on: Malme-3M
[16] = tested on: SR
[17] = tested on: K562
[18] = tested on: SK-MEL-2
[19] = tested on: IGROV-1
[20] = tested on: SF-295
[21] = tested on: UACC-257
[22] = tested on: XF498
[23] = tested on: DLD-1
[24] = tested on: A549
[25] = tested on: HOP-18
[26] = tested on: HT-29
[27] = tested on: A498
[28] = tested on: SN12C
[29] = tested on: SF-539
[30] = tested on: ACHN
[31] = tested on: HCT-116
[32] = tested on: HOP-62
[33] = tested on: DMS-273
[34] = tested on: NCI-H460
[35] = tested on: CAKI-1
[36] = tested on: SNB-19
[37] = tested on: CCRF-CEM
[38] = tested on: OVCAR-4
[39] = tested on: SF-268
[40] = tested on: KM12
[41] = tested on: SNB-78
[42] = tested on: UO-31
[43] = tested on: LXFL 529
[44] = tested on: MOLT-4
[45] = tested on: HCC 2998
[46] = tested on: OVCAR-3
[47] = tested on: SK-MEL-5
[48] = tested on: SW-620
[49] = tested on: SK-MEL-28
[50] = tested on: TK-10
[51] = tested on: RPMI-8226
[52] = tested on: HOP-92
[53] = tested on: LOX IMVI
[54] = tested on: DMS-114
[55] = tested on: NCI-H522
[56] = tested on: U-251
[57] = tested on: SK-OV-3
[58] = tested on: COLO 205

Measured: GI50

CC(=O)CCn1ncc(Cl)c(Cl)c1=O
6.55 µM: [4]
inactive: [1] 16.5 µM | [2] 4.92 µM | [3] 34.4 µM | [5] 19.1 µM | [6] 20.5 µM | [7] 8.39 µM | [8] 18.6 µM | [9] 15 µM | [10] 15.7 µM | [11] 23.2 µM | [12] 17.2 µM | [13] 17.3 µM | [14] 16.7 µM | [15] 20.7 µM | [16] 9.59 µM | [17] 3.51 µM | [18] 14.2 µM | [19] 18.7 µM | [20] 19.1 µM | [21] 16.5 µM | [22] 19.7 µM | [23] 11.2 µM | [24] 23 µM | [25] 16.6 µM | [26] 14.1 µM | [27] 24.9 µM | [28] 14.3 µM | [29] 22.2 µM | [30] 17 µM | [31] 14.5 µM | [32] 19.7 µM | [33] 17.7 µM | [34] 20.2 µM | [35] 1.91 µM | [36] 18 µM | [37] 21.9 µM | [38] 9.95 µM | [39] 12.1 µM | [40] 17.7 µM | [41] 19.8 µM | [42] 20 µM | [43] 13.4 µM | [44] 20.6 µM | [45] 9.51 µM | [46] 13.7 µM | [47] 19.2 µM | [48] 19 µM | [49] 13.8 µM | [50] 48.6 µM | [51] 14.2 µM | [52] 17 µM | [53] 15.6 µM

Cc1ccc(C(O)/C(=N/N)c2nc3ccc([N+](=O)[O-])cc3nc2O)cc1 (stereo unspecified)
28 µM: [4]
inactive: [1] 57.5 µM | [2] > 100 µM | [54] 33.9 µM | [3] 43.7 µM | [5] > 100 µM | [6] > 100 µM | [7] 27 µM | [9] > 100 µM | [10] > 100 µM | [11] > 100 µM | [12] 46.8 µM | [13] > 100 µM | [14] > 100 µM | [15] > 100 µM | [16] 58.7 µM | [17] 22.6 µM | [18] > 100 µM | [19] > 100 µM | [20] > 100 µM | [21] > 100 µM | [22] 95.5 µM | [23] > 100 µM | [24] > 100 µM | [55] 17.8 µM | [26] > 100 µM | [28] > 100 µM | [30] 47.3 µM | [56] > 100 µM | [31] > 100 µM | [32] > 100 µM | [33] 83.4 µM | [34] > 100 µM | [57] > 100 µM | [58] > 100 µM | [36] > 100 µM | [37] 13.5 µM | [38] > 100 µM | [39] 74.6 µM | [40] 51.8 µM | [41] > 100 µM | [42] 45.4 µM | [43] 67 µM | [44] > 100 µM | [45] 4.66 µM | [46] > 100 µM | [47] 43.2 µM | [48] > 100 µM | [49] > 100 µM | [50] > 100 µM | [51] 40.6 µM | [52] > 100 µM | [53] > 100 µM
